In patent US7795226B2, “Control of radiation injury” (Biotempt B.V., priority 2006, dated 2010):

Key:
[1] = tested on: cell-cycle marker pCDG and auxin-responsive marker DR5::GUS; experiment: Arabidopsis thaliana seedling cell-cycle analysis (GUS markers); conditions: for identified as useful peptide for treatment of radiation injury from cell-cycle studies in plants and in vitro proliferation studies: Results from Examples 9 and 10
Method: To further study anti-cell-cycle activity of various oligopeptides, a proliferation experiment in Arabidopsis Thaliana seedlings was performed. The aim was to test a group of 140 oligopeptides of varying length for their effect on plant marker gene expression during rapid growth when avid cell division occurs.
The peptides were re-suspended in 1× Phosphate Buffer Saline (PBS) pH 8 to a final concentration of 5 mg/ml. The obtained solutions were then divided through 96-well round bottom plates (Corning Incorporated) at 40 microliters per well. Plates were stored before use at […] for four days. Seeds of Arabidopsis thaliana ecotype Ws-0 were surface sterilized in 2% commercial bleach (Gloria) for ten minutes and washed five times with sterile MQ water. The seeds were then re-suspended with 0.1% agar and plated on MS20 plates supplemented with 80 mg/l Kanamycin.
The plates were placed at […] for two nights and then transferred to a climate room at […] and a 16/8 hours photoperiod. After four days of growth, the seedlings were transferred to 96-well plates containing the peptide solutions (four seedlings per well) and incubated for four and eight hours.
For this experiment, Arabidopsis homozygous seedlings harboring two reporter genes fused to GUS were used. […] After incubation with the compounds, the seedlings were stained for GUS. The staining reaction was performed in 100 mM sodium phosphate buffer (pH 7.0) that contained 10 mM EDTA, 10% DMSO, 0.1% Triton X-100, 2 mM X-Gluc, 0.5 mM K3Fe(CN)6 and 0.5 mM K4Fe(CN)6 at […] for 16 hours. […] Seedlings were fixed and cleared in chloral hydrate solution for detailed microscopic observation and photography under a microscope equipped with DIC optics.
Peptides were tested for an effect on marker gene expression on rapidly growing Arabidopsis young seedlings. This was monitored by changes on GUS distribution in different organs: root, root-hypocotyl transition zone and cotyledons.

[2] = tested on: renal ischemia reperfusion in mice; experiment: mouse renal ischemia reperfusion test; assay type: in vivo; design: BUN after 25 minutes renal ischemia, mean / Urea levels in dose-response experiment: unit not given here
Method: Six oligopeptides (i.e., A: LAGV (SEQ ID NO:121); B: AQGV (SEQ ID NO:120); C: LAG; D: AQG; E: MTR; and F: MTRV (SEO ID NO:119)) were tested and compared with PBS (control) in a double blind animal study for each peptide's relative ability to aid recovery in a mouse renal ischemia reperfusion test. In this test, the mice were anesthetized, and one kidney from each mouse was removed. The other kidney was tied off for 25 minutes, and the serum urea levels were allowed to increase. Both before and after tying off, each of the separate peptides was administered to thirty (30) different mice (5 mg oligopeptide / kg body mass intravenously), after which, the mortality of the mice was determined for each oligopeptide as well as was the BUN concentration at two hours, 24 hours and 72 hours. The results are shown in Table 3 below (excluding the results of peptide A (LAGV (SEQ ID NO:121)) obtained in Example 3).
Under inhalation anesthesia, the left kidney with its artery and vein was isolated and occluded for 25 minutes using a microvascular clamp. During surgery, animals were placed on a heating pad to maintain body temperature at 37° C. Five minutes before placing the clamp, and five minutes before releasing the clamp, 5 mg/kg of peptide dissolved in 0.1 mL of sterile saline, was administered intravenously. After reperfusion of the left kidney, the right kidney was removed. Kidney function was assessed by measuring blood urea nitrogen before clamping, and at 2, 24, and 72 hours after reperfusion.
Peptides were tested at 0.3, 1, 3, 10 and 30 mg/kg dosages given as described in Example 3. P values (calculated by Mann Whitney U-test (SPSS for Windows)) of serum urea levels of PBS compared to peptide D groups at 72 hours post-clamping were at 0.3 mg/kg 0.001, at 1 mg/kg 0.009, at 3 mg/kg 0.02, at 10 mg/kg 0.000, and at 30 mg/kg 0.23; for peptide B (SEQ ID NO:120) groups, these P-values were 0.88, 0.054, 0.000, 0.001 and 0.003.

[3] = tested on: high dose LPS (E. coli 026:B6)-induced septic shock in BALB/c mice; experiment: high dose LPS-induced septic shock, peptide administered twice; assay type: in vivo; conditions: peptide twice (t = 2 and 24 hours) 5 mg/kg
Method: Mice used in sepsis or septic shock experiments: Female BALB/c mice of eight to twelve weeks of age were used for all experiments. The animals were bred in our facility under specific pathogen-free conditions according to the protocols described in the […] of European Laboratory Animal Science Associations (FELASA) Working group on Animal Health (Laboratory Animals 28:1-24, 1994).
Injection protocols: For the endotoxin model, BALB/c mice were injected i.p. with 150-300 μg LPS (E. coli 026:B6; Difco Lab., Detroit, Mich., USA). Control groups were treated with PBS i.p. only. To test the effect of peptides, they were dissolved in PBS and injected i.p. at predetermined points in time after LPS treatment.
Mice were scored for sickness severity using the following measurement scheme: • 0 No abnormalities. • 1 Percolated fur, but no detectable behavior differences compared to normal mice. • 2 Percolated fur, huddle reflex, responds to stimuli (such as tap on cage), just as active during handling as healthy mouse. • 3 Slower response to tap on cage, passive or docile when handled, but still curious when alone in a new setting. • 4 Lack of curiosity, little or no response to stimuli, quite immobile. • 5 Labored breathing, inability or slow to self-right after being rolled onto back (moribund, sacrificed). • D Dead.
A second set of septic shock experiments were set up to determine which of the peptides LQG, LQGV (SEQ ID NO:117), VLPALP (SEQ ID NO:140), VLPALPQ (SEQ ID NO:143), MTR, MTRV (SEQ ID NO:119), VVC or AQG, AQGV (SEQ ID NO:120), LAG and LAGV (SEQ ID NO:121) were capable of inhibiting high dose LPS-induced septic shock in mice by treating mice with a double dose of peptide at two and 24 hours after LPS treatment. At each treatment, peptides were used at 5 mg/kg bodyweight. BALB/c mice were injected i.p. with high doses LPS (E. coli 026:B6; Difco Lab., Detroit, Mich. USA), predetermined to be leading to 80 to 100% mortality in 24 to 72 hours.

Row | Substance | identified as useful peptide for treatment of radiation injury from cell-cycle studies in plants and in vitro proliferation studies [1] | also measured
1 | GVLC (human beta-catenin-derived peptide) | useful | 
2 | RLPG | useful | 
3 | EPPE (tetramer peptide) | useful | 
4 | VCNYRDV | useful | 
5 | MGGTWA | useful | 
6 | LNEAL (pentamer peptide) | useful | 
7 | MTEV (tetramer peptide) | useful | 
8 | VLPAPLQ (septamer peptide) | useful | 
9 | VGQL (tetramer peptide) | useful | 
10 | LCFL | useful | 
11 | LTCDDP | useful | 
12 | FVLS (CRP-derived peptide) | useful | 
13 | LAG | useful | BUN concentration versus the PBS control group (in words) ([2]; 5 mg/kg i.v.): no reducing effect on BUN concentration; mortality versus the PBS control group (in words) ([2]; 5 mg/kg i.v.): significant reduction of mortality; mortality at 72 hours post-reperfusion ([2]; 5 mg/kg i.v. before and after 25 minutes clamping, dead/total): 4/10; BUN after 25 minutes renal ischemia, mean ([2]; 2 hours after reperfusion, 5 mg/kg i.v.): 18.13; BUN after 25 minutes renal ischemia, mean ([2]; 24 hours after reperfusion, 5 mg/kg i.v.): 59.24; BUN after 25 minutes renal ischemia, mean ([2]; 72 hours after reperfusion, 5 mg/kg i.v.): 74.4; BUN after 25 minutes renal ischemia, mean ([2]; t = 0 hr (before clamping), 5 mg/kg i.v.): 10.15; mice scored D (dead), effect at t = 48 hours ([3]; LPS dose 10.5): 6; mice with sickness score 5, effect at t = 24 hours ([3]; LPS dose 10.5): 5; mice scored D (dead), effect at t = 48 hours ([3]; LPS dose 11): 6; mice with sickness score 5, effect at t = 24 hours ([3]; LPS dose 11): 6
14 | RVLQ (tetramer peptide) | useful | 
15 | EALE (tetramer peptide) | useful | 
16 | QPLAPLVG | useful | 
17 | ITTL (human beta-catenin-derived peptide) | useful | 
18 | LQGA (tetramer peptide) | useful | 
19 | SPIE (human beta-catenin-derived peptide) | useful | 
20 | YAIT (human beta-catenin-derived peptide) | useful | 
21 | FSYA (CRP-derived peptide) | useful | 
22 | VEGNL (pentamer peptide) | useful | 

Row | Substance | identified as useful peptide for treatment of radiation injury from cell-cycle studies in plants and in vitro proliferation studies [1] | also measured
23 | EMFQ (tetramer peptide) | useful | 
24 | QLLG (human beta-catenin-derived peptide) | useful | 
25 | DINGFLPAL | useful | effect on cell-cycle marker (pCDG) and auxin-responsive marker (DR5::GUS) (in words) ([1]; seedlings incubated four and eight hours, 5 mg/ml peptide solution): less consistent and time-dependent effect
26 | PGCP | useful | 
27 | CPRGVNP | useful | 
28 | VGGI | useful | 
29 | QVVC (tetramer peptide) | useful | 
30 | NLIN (human beta-catenin-derived peptide) [NUN] | useful | 
31 | EVVR (tetramer peptide) | useful | 
32 | FWVD (CRP-derived peptide) | useful | 
33 | CPVQ (tetramer peptide) | useful | 
34 | AVAL | useful | 
35 | NMWD (CRP-derived peptide) | useful | 
36 | LHNL | useful | 
37 | LNTI (human beta-catenin-derived peptide) | useful | 
38 | LGTL | useful | 
39 | APSL (human beta-catenin-derived peptide) | useful | 
40 | AFTV (CRP-derived peptide) | useful | 
41 | QALG (human beta-catenin-derived peptide) | useful | 
42 | LQAV (tetramer peptide) | useful | 
43 | TLAVE (beta-hCG-derived peptide) | useful | 
